Several values for one entry are separate records, joined by “and”; a condition that tells them apart may be missing. Equal values may be shown once. Inconclusive results and toxic doses are left out. Rule for the calls: active = survival T/C of 150% or more; inactive = T/C below 125% in these data.
System: P388 leukemia ip, CD2F1 mice, survival T/C
Assay: NCI In Vivo Anticancer Drug Screen. Data for tumor model P388 Leukemia (intraperitoneal) in CD2F1 (CDF1) mice
Conditions: endpoint: median survival time, higher = longer survival
Outline: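 Mice carrying the transplanted tumor received test compound or vehicle. Survival was recorded in each group, and the value is the treated-group measurement divided by that of the vehicle-treated control group.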

[1] = dose: 12.5 mg/kg/injection, schedule: Q01DX009 (ip), vehicle: distilled water + Tween-80
[2] = dose: 50.0 mg/kg/injection, schedule: Q01DX005 (ip), vehicle: saline with Tween-80
[3] = dose: 50.0 mg/kg/injection, schedule: Q01DX009 (ip), vehicle: saline with Tween-80
[4] = dose: 100.0 mg/kg/injection, schedule: Q01DX009 (ip), vehicle: saline with Tween-80
[5] = dose: 200.0 mg/kg/injection, schedule: Q01DX009 (ip), vehicle: saline with Tween-80
[6] = dose: 400.0 mg/kg/injection, schedule: Q01DX009 (ip), vehicle: saline with Tween-80
[7] = dose: 50.0 mg/kg/injection, schedule: Q01DX005 (ip), vehicle: saline
[8] = dose: 100.0 mg/kg/injection, schedule: Q01DX005 (ip), vehicle: saline
[9] = dose: 200.0 mg/kg/injection, schedule: Q01DX005 (ip), vehicle: saline
[10] = dose: 100.0 mg/kg/injection, schedule: Q01DX005 (ip), vehicle: saline with Tween-80
[11] = dose: 100.0 mg/kg/injection, schedule: Q04DX002 (ip), vehicle: saline with Tween-80
[12] = dose: 200.0 mg/kg/injection, schedule: Q04DX002 (ip), vehicle: saline with Tween-80
[13] = dose: 400.0 mg/kg/injection, schedule: Q04DX002 (ip), vehicle: saline with Tween-80

Measured: T/C

OCN(CO)c1nc(CCC(Br)(Br)Br)nc(N(CO)CO)n1
inactive: [1] 104 % of control | dose: 25.0 mg/kg/injection, schedule: Q01DX009 (ip), vehicle: distilled water + Tween-80 98 % of control | dose: 50.0 mg/kg/injection, schedule: Q01DX009 (ip), vehicle: distilled water + Tween-80 98 % of control | dose: 100.0 mg/kg/injection, schedule: Q01DX009 (ip), vehicle: distilled water + Tween-80 89 % of control | dose: 200.0 mg/kg/injection, schedule: Q01DX009 (ip), vehicle: distilled water + Tween-80 98 % of control

CCOC(=O)C1=C(C)OC(N)=C(C#N)C12C(=O)N(C)C(=O)c1ccccc12 (stereo unspecified)
inactive: dose: 50.0 mg/kg/injection, schedule: Q01DX005 (ip), vehicle: Klucel (hydroxypropylcellulose) (HPC) 101 % of control | dose: 100.0 mg/kg/injection, schedule: Q01DX005 (ip), vehicle: Klucel (hydroxypropylcellulose) (HPC) 103 % of control | dose: 200.0 mg/kg/injection, schedule: Q01DX005 (ip), vehicle: Klucel (hydroxypropylcellulose) (HPC) 96 % of control

Cc1c2ccccc2c(C)c2c1cc(C(=O)O)c1ccccc12
inactive: dose: 25.0 mg/kg/injection, schedule: Q01DX005 (ip), vehicle: saline with Tween-80 113 % of control | [2] 113 % of control and 116 % of control | dose: 200.0 mg/kg/injection, schedule: Q01DX005 (ip), vehicle: saline with Tween-80 124 % of control

CCOC(=O)/C=C/N=[N+]=[N-]
inactive: dose: 60.0 mg/kg/injection, schedule: Q01DX005 (ip), vehicle: saline with Tween-80 102 % of control | dose: 120.0 mg/kg/injection, schedule: Q01DX005 (ip), vehicle: saline with Tween-80 105 % of control | dose: 240.0 mg/kg/injection, schedule: Q01DX005 (ip), vehicle: saline with Tween-80 106 % of control

O=C(CCC1(CCC(=O)c2ccccc2)c2ccccc2C(=O)c2ccccc21)c1ccccc1
inactive: dose: 25.0 mg/kg/injection, schedule: Q04DX003 (ip), vehicle: Klucel (hydroxypropylcellulose) (HPC) 93 % of control | dose: 50.0 mg/kg/injection, schedule: Q04DX003 (ip), vehicle: Klucel (hydroxypropylcellulose) (HPC) 108 % of control | dose: 100.0 mg/kg/injection, schedule: Q04DX003 (ip), vehicle: Klucel (hydroxypropylcellulose) (HPC) 86 % of control | dose: 200.0 mg/kg/injection, schedule: Q04DX003 (ip), vehicle: Klucel (hydroxypropylcellulose) (HPC) 91 % of control

CC(C)N(C(N)=O)c1ccc2c(c1)OCO2
inactive: [3] 98 % of control | [4] 107 % of control | [5] 98 % of control

N#CC1C(=O)NC(=O)C(C#N)C1c1ccc(Cl)c(Cl)c1 (stereo unspecified)
inactive: dose: 50.0 mg/kg/injection, schedule: Q01DX009 (ip), vehicle: Klucel (hydroxypropylcellulose) (HPC) 99 % of control | dose: 100.0 mg/kg/injection, schedule: Q01DX009 (ip), vehicle: Klucel (hydroxypropylcellulose) (HPC) 100 % of control | dose: 200.0 mg/kg/injection, schedule: Q01DX009 (ip), vehicle: Klucel (hydroxypropylcellulose) (HPC) 102 % of control

O=C(N/N=C(/C(=N/NC(=O)c1ccccc1)c1ccccc1)c1ccccc1)c1ccccc1
inactive: [4] 100 % of control | [5] 95 % of control | [6] 90 % of control

COc1ccn(C2CCCO2)c(=O)n1 (stereo unspecified)
inactive: [7] 95 % of control | [8] 100 % of control | [9] 88 % of control

CCN(CC)CCNC1=C(Cl)C(=O)c2ccccc2C1=O
inactive: dose: 1.56 mg/kg/injection, schedule: Q01DX009 (ip), vehicle: saline 95 % of control | dose: 3.13 mg/kg/injection, schedule: Q01DX009 (ip), vehicle: saline 96 % of control | dose: 6.25 mg/kg/injection, schedule: Q01DX009 (ip), vehicle: saline 96 % of control | [1] 100 % of control | dose: 12.5 mg/kg/injection, schedule: Q01DX009 (ip), vehicle: saline 101 % of control

CCN(Cc1cccc(S(=O)(=O)[O-])c1)c1ccc(C(=C2C=CC(=[N+](CC)Cc3cccc(S(=O)(=O)O)c3)C=C2)c2ccccc2S(=O)(=O)O)cc1
inactive: [7] 104 % of control | [8] 96 % of control | [9] 96 % of control

O=C1NC(=O)C2(N1)C(=O)c1cccc3cccc2c13 (stereo unspecified)
inactive: dose: 50.0 mg/kg/injection, schedule: Q01DX009 (ip), vehicle: distilled water + alcohol 100 % of control | dose: 100.0 mg/kg/injection, schedule: Q01DX009 (ip), vehicle: distilled water + alcohol 102 % of control | dose: 200.0 mg/kg/injection, schedule: Q01DX009 (ip), vehicle: distilled water + alcohol 95 % of control

O=C1CN(Cc2cccc(Cl)c2)CC(=O)N2Cc3ccccc3CN12
inactive: [2] 106 % of control | [10] 98 % of control

COC(=O)c1nnc(C(=O)OC)c2c1c1ccccc1n2C(C)=O
inactive: [11] 99 % of control | [12] 99 % of control | [13] 99 % of control

NC(=O)c1nnn(Cc2ccccc2)c1N
inactive: dose: 25.0 mg/kg/injection, schedule: Q01DX009 (ip), vehicle: saline with Tween-80 119 % of control | [3] 102 % of control | [4] 109 % of control | [5] 106 % of control | [6] 110 % of control

COC(=O)[C@@H]1C(=O)[C@H](C(=O)OC)C2CCCC3CCCC1N32 (stereo partly specified)
inactive: [2] 98 % of control | [10] 98 % of control

CN(C)c1nc(=O)c2cc(Br)ccc2o1
inactive: dose: 60.0 mg/kg/injection, schedule: Q01DX005 (ip), vehicle: Klucel (hydroxypropylcellulose) (HPC) 96 % of control | dose: 120.0 mg/kg/injection, schedule: Q01DX005 (ip), vehicle: Klucel (hydroxypropylcellulose) (HPC) 100 % of control

CC(=O)Oc1cc2c3c(c1)CCCN3CCC2
inactive: dose: 1.25 mg/kg/injection, schedule: Q04DX003 (ip), vehicle: saline with Tween-80 91 % of control | dose: 2.5 mg/kg/injection, schedule: Q04DX003 (ip), vehicle: saline with Tween-80 104 % of control | dose: 5.0 mg/kg/injection, schedule: Q04DX003 (ip), vehicle: saline with Tween-80 100 % of control

C1=C(CC2=C[P+](c3ccccc3)(c3ccccc3)C=C(c3ccccc3)O2)OC(c2ccccc2)=C[P+]1(c1ccccc1)c1ccccc1
inactive: dose: 0.75 mg/kg/injection, schedule: Q01DX005 (ip), vehicle: saline with Tween-80 115 % of control | dose: 3.0 mg/kg/injection, schedule: Q01DX005 (ip), vehicle: saline 124 % of control

O=C(c1ccccc1)C1(c2ccccc2)CC1
inactive: [3] 104 % of control | [4] 104 % of control | [5] 104 % of control | [6] 99 % of control

NC(=S)N/N=C/c1nc2ccccc2c(=O)n1-c1ccc(Cl)cc1
inactive: [11] 104 % of control | [12] 95 % of control | [13] 98 % of control

COc1cc(O)c2c(c1)C(O)C(O)CC1OC1C(=O)/C=C/CC(C)OC2=O (stereo unspecified)
inactive: dose: 1.56 mg/kg/injection, schedule: Q01DX005 (ip), vehicle: saline with Tween-80 115 % of control | dose: 3.12 mg/kg/injection, schedule: Q01DX005 (ip), vehicle: saline with Tween-80 107 % of control | dose: 6.25 mg/kg/injection, schedule: Q01DX005 (ip), vehicle: saline with Tween-80 107 % of control | dose: 12.5 mg/kg/injection, schedule: Q01DX005 (ip), vehicle: saline with Tween-80 114 % of control

Reference: PubChem BioAssay AID330 (DTP/NCI, 2004)
